ChEMBL document CHEMBL1201862, “PubChem BioAssay data set” (2004)
Calls of active or inactive are those of the source.

Tests used:
Prothrombin [1] = target: Prothrombin (Homo sapiens, UniProt P00734); assay: Thrombin 1536 HTS Dose Response Confirmation. [Related pubchem assays: 1046 (Thrombin 1536 HTS; hits were confirmed in this assay)]; format: functional
[2] = target: Broad substrate specificity ATP-binding cassette transporter ABCG2 (Homo sapiens, UniProt Q9UNQ0); assay: ABCG2 efflux pump inhibitors, dose response, Ig-MXP3 cells, flow cytometry (AID 1690); format: functional
[3] = target: T1, Beta-2 adrenergic receptor (Homo sapiens, UniProt P07550); assay: Dose response for HTS for Beta-2AR agonists via FAP method from Powderset3.; format: functional
[4] = target: T1, Beta-2 adrenergic receptor; assay: beta2AR agonists driving receptor internalization, dose response, cell-based, FAP fluorogen, flow cytometry, cherry pick 1 (AID 588763); format: functional
Major prion protein = Major prion protein (Homo sapiens, UniProt P04156); format: functional, cell-based
[5] = target: Peroxisome proliferator-activated receptor gamma/Nuclear receptor coactivator 3 (Homo sapiens, UniProt P37231); assay: (§1) TR-FRET dose response biochemical High Throughput Screening assay for agonists of the steroid receptor coactivator 3 (SRC-3) recruitment by the peroxisome proliferator-activated receptor gamma (PPAR gamma): non-selective agonists. [Related pubchem assays: 1301 (Confirmation screen.), 1048 (Primary screen.)]; format: functional
[6] = target: DNA dC->dU-editing enzyme APOBEC-3A (Homo sapiens, UniProt P31941); assay: APOBEC3A DNA deaminase inhibitors, dose response, biochemical (AID 504722); format: functional
[7] = target: Peroxisome proliferator-activated receptor gamma/Nuclear receptor coactivator 1 (Homo sapiens, UniProt P37231); assay: as §1, with “1 (SRC-1)” for “3 (SRC-3)”, “assays (depositor defined):AID1300, AID1808, AID504735, AID631]” for “assays: 1301 (Confirmation screen.), 1048 (Primary screen.)]”; format: protein assay
[8] = target: FAD-linked sulfhydryl oxidase ALR (Homo sapiens, UniProt P55789); assay: inhibitors of human ALR sulfhydryl oxidase, dose response, biochemical, H2O2 detection, luminescence, cherry-pick (AID 493248)
[9] = target: DNA dC->dU-editing enzyme APOBEC-3G (Homo sapiens, UniProt Q9HC16); assay: Dose Response confirmation of small molecule APOBEC3G DNA Deaminase Inhibitors via a fluorescence-based single-stranded DNA deaminase assay. [Related pubchem assays (depositor defined):AID493012, AID493028]; format: functional
[10] = target: Peroxisome proliferator-activated receptor gamma/Nuclear receptor coactivator 2 (Homo sapiens, UniProt P37231); assay: TR-FRET dose response biochemical High Throughput Screening assay for agonists of the steroid receptor coactivator 2 (SRC-2) recruitment by the peroxisome proliferator-activated receptor gamma (PPAR gamma): non-selective agonists. [Related pubchem assays: 1297, 1032 ]; format: functional
Vero = assay: Vero cell toxicity, dose response, cytotoxicity control, plate reader, cherry-pick samples (AID 687020); format: functional, cell-based; details: Chlorocebus sabaeus
A549 = assay: A549 cell toxicity, dose response, cytotoxicity control, plate reader, cherry-pick samples (AID 687028); format: functional, cell-based; details: Homo sapiens
BHK-21 = assay: BHK-21 cell toxicity, dose response, cytotoxicity control, plate reader, cherry-pick samples (AID 687030); format: functional, cell-based; details: Mesocricetus auratus
[11] = target: 26S proteasome non-ATPase regulatory subunit 14 (Homo sapiens, UniProt O00487); assay: inhibition of proteasome subunit RPN11 – biochemical, fluorescence polarization, uHTS hits, confirmation (AID 602368); format: functional
[12] = target: T2, DNA repair and recombination protein RAD54-like (Homo sapiens, UniProt Q92698); assay: inhibitors of human RAD54 branch migration, confirmation, biochemical, fluorescence, cherry-picked samples, dose series (AID 651657); format: functional
T2 sequence (Q92698 whole entry): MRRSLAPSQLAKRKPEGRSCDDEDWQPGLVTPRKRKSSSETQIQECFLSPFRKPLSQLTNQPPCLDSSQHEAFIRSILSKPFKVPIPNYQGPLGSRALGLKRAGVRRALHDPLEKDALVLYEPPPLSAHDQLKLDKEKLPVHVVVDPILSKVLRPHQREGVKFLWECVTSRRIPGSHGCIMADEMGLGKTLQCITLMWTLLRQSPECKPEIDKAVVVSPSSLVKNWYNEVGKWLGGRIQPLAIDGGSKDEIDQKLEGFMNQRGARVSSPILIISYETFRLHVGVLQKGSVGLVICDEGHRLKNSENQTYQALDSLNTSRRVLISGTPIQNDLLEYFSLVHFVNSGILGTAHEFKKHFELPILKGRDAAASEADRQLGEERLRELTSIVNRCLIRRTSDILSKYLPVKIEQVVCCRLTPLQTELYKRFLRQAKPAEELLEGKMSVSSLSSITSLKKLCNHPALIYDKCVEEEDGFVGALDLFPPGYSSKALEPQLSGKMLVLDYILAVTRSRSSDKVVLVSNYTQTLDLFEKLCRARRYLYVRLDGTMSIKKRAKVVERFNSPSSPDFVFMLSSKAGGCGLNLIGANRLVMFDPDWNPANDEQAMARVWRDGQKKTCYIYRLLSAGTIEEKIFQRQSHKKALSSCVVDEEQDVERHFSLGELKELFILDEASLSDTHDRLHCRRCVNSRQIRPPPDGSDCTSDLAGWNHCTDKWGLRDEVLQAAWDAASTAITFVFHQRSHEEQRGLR

[13] = target: T3, DNA repair protein RAD52 homolog (Homo sapiens, UniProt P43351); format: functional, biochemical
T3 sequence (P43351 whole entry): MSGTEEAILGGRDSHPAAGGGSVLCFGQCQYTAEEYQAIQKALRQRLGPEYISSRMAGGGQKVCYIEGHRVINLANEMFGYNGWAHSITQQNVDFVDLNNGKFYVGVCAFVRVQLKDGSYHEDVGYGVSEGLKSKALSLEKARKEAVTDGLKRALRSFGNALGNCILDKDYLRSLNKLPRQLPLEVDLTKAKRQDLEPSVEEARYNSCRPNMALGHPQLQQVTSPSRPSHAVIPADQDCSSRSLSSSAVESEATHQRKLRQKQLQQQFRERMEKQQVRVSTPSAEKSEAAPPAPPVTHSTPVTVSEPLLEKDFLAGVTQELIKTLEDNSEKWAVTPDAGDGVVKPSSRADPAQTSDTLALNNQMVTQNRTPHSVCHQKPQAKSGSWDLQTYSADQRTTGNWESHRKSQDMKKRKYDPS

[14] = MDA-MB-231 cell growth inhibition, dose response, cytotoxicity control for RAD54 inhibitor project, CellTiter-Glo luminescence, cherry-pick (AID 651692); format: functional, cell-based
Prothrombin [15] = target: Prothrombin (Bos taurus, UniProt P00735); assay: thrombin inhibition, dose response, biochemical, fluorescence polarization, uHTS hits (AID 602369); format: functional
[16] = target: 72 kDa type IV collagenase (Homo sapiens, UniProt P08253); assay: Dose Response validation of uHTS RPN11 inhibitor hits using a MMP-2 Fluorescence assay.; format: functional

CC(C)C(NS(=O)(=O)c1ccccc1)C(=O)OCc1cc([N+](=O)[O-])cc2c1OCOC2 (stereo unspecified)
IC50 (Prothrombin [1]): > 50 µM (not active)
EC50 [2]: 1.57 µM (active)

COc1ccccc1-c1nnc(S)n1-c1ccccc1
IC50 (cells): > 138 µM (inactive)

CC(Sc1nc(-c2ccccc2)cc(C(F)(F)F)n1)C(=O)N1CCCCC1 (stereo unspecified)
EC50 [3]: 0.0143 µM (active)
EC50 [4]: 0.214 µM (active)

COc1ccccc1-c1n[nH]c(=S)n1-c1ccccc1
IC50 (Major prion protein): 7.18 µM (active)
EC50 [5]: > 79.4 µM (not active)
IC50 [6]: > 100 µM (inactive)
EC50 [7]: 10.5 µM (inactive)
AC50 [8]: 0.058 µM (active)
IC50 [9]: 4.99 µM (active)
EC50 [10]: 6.26 µM (active)

N#Cc1c(Nc2ccccc2)[n+]([O-])c2ccc(Cl)cc2[n+]1[O-]
AC50 (Vero): 22.5 µM (active)
AC50 (A549): 20.7 µM (active)
AC50 (BHK-21): 38.5 µM (active)

COC(=O)c1c(NC(=O)c2ccc(S(=O)(=O)N3CC(C)OC(C)C3)cc2)sc2c1CCN(C)C2 (stereo unspecified)
IC50 [11]: 29.5 µM (active)
AC50 [12]: 55.4 µM (active)
AC50 [13]: 11.8 µM (active)
AC50 [14]: 24.6 µM (active)
IC50 (Prothrombin [15]): 37.4 µM (active)
IC50 [16]: > 100 µM (inactive)
